Measured values as given in patent US20230381125A1.
Like-named read-outs stand apart in the source and are kept apart here.

Tests used:
[1] = phase 1b oral dosing study; cited from earlier work
SARS-CoV-2 [2] = conditions: cited from earlier work
[3] = cited from earlier work
[4] = rodent models of acute lung injury; cited from earlier work
[5] = room temperature; cited from earlier work
[6] = target: SARS-CoV-2 binding to its cellular receptor (UniProt P0DTC2+Q9BYF1); conditions: NIH core screening facility data; cited from earlier work
[7] = cited from earlier work; for CD4+ and CD8+ Treg responses in vivo / autoreactive Th1 and Th17 cells in vivo: in vivo administration; for disease progression in mouse models of type 1 diabetes, multiple sclerosis, and rheumatoid arthritis / inflammation in a mouse model of type 2 diabetes: in vivo
SARS-CoV-2 [8] = assay type: in vivo, K18-hACE2 mice; conditions: for mice that died during the 7-day observation period: control 3/5 died
MHV-1 = MHV-1 infected A/J mice given GABA-R agonist in drinking water; assay type: in vivo; conditions: for body weight loss vs. plain water (FIG. 4A) / death rate vs. plain water (FIG. 4C) / disease (illness) scores vs. plain water (FIG. 4B) / lung coefficient index vs. plain water (FIG. 4D): Example 2, in water: GABA 2 mg/mL, homotaurine 0.25 mg/mL, baclofen 0.25 mg/mL; for mice that died up to day 14 post-infection: control 3/9 survived; for average body weight loss by day 6: control lost 23%
[9] = test system: anti-CD3-activated human PBMC; conditions: cited from earlier work
[10] = large long-term phase III clinical trial; cited from earlier work
[11] = 0.2 mg/mL p=0.049, 20 mg/mL p=0.174, log-rank test
[12] = GABA 20 mg/ml in water, from 3 days post-infection
[13] = GABA 20 mg/ml in water, starting immediately after MHV-1 inoculation

In the case of `NCCCC(=O)O` [GABA, gamma-aminobutyric acid], the safety [1] is given as “safe”, the “interference with SARS-CoV-2 replication” value (SARS-CoV-2 [2]; NIH core screening facility data) is given as “did not interfere” and the “effect on SARS infection or replication” value (SARS-CoV-2 [2]; NIH drug screening program) is given as “no effect”. For the same molecule, the “clinical benefit (ability to reduce seizures)” value ([3]; hundreds of epilepsy patients) was “no clinical benefit”, the adverse effects ([3]; long-term studies in epilepsy patients) was “no adverse effects” and the “inflammation, alveolar fluid clearance and lung functional recovery” value [4] was “reduce inflammation and improve alveolar fluid clearance and lung functional recovery”. For the same molecule, the stability [5] was “stable at room temperature”, the “interference with SARS-CoV-2 interaction with its cellular receptor” value [6] was “did not interfere” and the “CD4+ and CD8+ Treg responses in vivo” value [7] was “promoting”. For the same molecule, the “autoreactive Th1 and Th17 cells in vivo” value [7] was “inhibits”, the “disease progression in mouse models of type 1 diabetes, multiple sclerosis, and rheumatoid arthritis” value [7] was “inhibits disease progression” and the “inflammation in a mouse model of type 2 diabetes” value [7] was “limits inflammation”. The “death rates vs. plain water” value (SARS-CoV-2 [8]; [11]) was “reduced”, the “survival following SARS-CoV2 infection vs. control (FIG. 5)” value (SARS-CoV-2 [8]; [11]) was “increased” and the “mice that died during the 7-day observation period” value (SARS-CoV-2 [8]; GABA 0.2 mg/mL in water, p<0.05) was “none”. For the same molecule, the “mice that died during the 7-day observation period” value (SARS-CoV-2 [8]; GABA 20 mg/ml in water, p=0.174) was 1/5, the “viral N1 and N2 transcripts in the lungs (RT-qPCR) vs. control” value (SARS-CoV-2 [8]; lungs harvested on days 6-7, data not shown) was “tended to be lower” and the “body weight loss vs. plain water (FIG. 4A)” value (MHV-1) was “significantly reduced”. For the same molecule, the “death rate vs. plain water (FIG. 4C)” value (MHV-1) was “significantly reduced”, the “disease (illness) scores vs. plain water (FIG. 4B)” value (MHV-1) was “significantly reduced” and the “body weight loss vs. control (FIG. 1A)” value (MHV-1; GABA0 and GABA3 vs. control, p<0.0001) was “reduced”. For the same molecule, the “illness scores vs. control (FIG. 2)” value (MHV-1; GABA0 and GABA3 vs. control, p<0.001) was “reduced”, the “survival following MHV-1 infection vs. control (FIG. 1B)” value (MHV-1; GABA0 p=0.002, GABA3 p=0.001, log rank test) was “increased” and the “highest average illness score (scale 0-5)” value (MHV-1; GABA 20 mg/ml in water immediately after inoculation, day 7 post-infection) was 1.6. For the same molecule, the “body weight at 14 days post-infection, % of starting weight” value (MHV-1; [12]) was 90%, the “maximum mean illness score (scale 0-5)” value (MHV-1; [12]) was 2.5 and the “mice that died up to day 14 post-infection” value (MHV-1; GABA 20 mg/ml in water, from 3 days post-infection, death on day 9) was 1/9. For the same molecule, the “average body weight loss by day 6” value (MHV-1; GABA 20 mg/ml in water, given from three days after infection) was 17%, the “average body weight loss by day 6” value (MHV-1; GABA 20 mg/ml in water, given immediately after MHV-1 infection) was 11% and the “body weight below starting weight 14 days post-infection” value (MHV-1; [13]) was 7%. The “mice that died up to day 14 post-infection” value (MHV-1; [13]) was “none” and the “IL-6, CXCL10/IP-10, CCL4, CCL20, and MCP-3 production” value [9] was “inhibits”.

In the case of `NCC(CC(=O)O)c1ccc(Cl)cc1` (centres unmarked) [baclofen], the “body weight loss vs. plain water (FIG. 4A)” value (MHV-1) is reported as “did not significantly decrease”, the “death rate vs. plain water (FIG. 4C)” value (MHV-1) is reported as “did not significantly decrease” and the “disease (illness) scores vs. plain water (FIG. 4B)” value (MHV-1) is reported as “slight but significant ability to reduce”. For the same molecule, the “lung coefficient index vs. plain water (FIG. 4D)” value (MHV-1) was “did not significantly decrease”.

For `NCCCS(=O)(=O)O` [homotaurine], the “efficacy in Alzheimer's disease” value [10] is given as “not effective”, the safety [10] is given as “excellent safety record” and the stability [5] is given as “stable at room temperature”. The “CD4+ and CD8+ Treg responses in vivo” value [7] was “promoting”, the “autoreactive Th1 and Th17 cells in vivo” value [7] was “inhibits” and the “disease progression in mouse models of type 1 diabetes, multiple sclerosis, and rheumatoid arthritis” value [7] was “inhibits disease progression”. The “inflammation in a mouse model of type 2 diabetes” value [7] was “limits inflammation”, the “body weight loss vs. plain water (FIG. 4A)” value (MHV-1) was “significantly reduced” and the “death rate vs. plain water (FIG. 4C)” value (MHV-1) was “significantly reduced”. For the same molecule, the “disease (illness) scores vs. plain water (FIG. 4B)” value (MHV-1) was “significantly reduced” and the “lung coefficient index vs. plain water (FIG. 4D)” value (MHV-1) was “significantly reduced”.
